Measurements taken from patent US20230303486A1, “CYCLOBUTYL-UREA DERIVATIVES” (Idorsia Pharmaceuticals Ltd, priority 2020, published 2023).
Like-named read-outs stand apart in the source and are kept apart here.

Key:
[1] = tested on: audiogenic generalized convulsive seizures in DBA/2J mice; test: Audiogenic seizure-sensitive mouse model of generalized convulsive seizures; format: in vivo; details: 10 mg/kg po, challenge 1h
Description: Compounds were formulated in a 10% polyethylene glycol 400 (PEG 400) / 90% aqueous solution of 0.5 % methylcellulose (MC 0.5%). Firstly drugs are dissolved in PEG 400 and then suspended in MC 0.5 % for oral gavage at Xmg/5 mL/kg (X see table).
• 1. Procedure: Following two days of acclimatisation, auditory seizures are induced in male juvenile DBA/2J mice (22-24 days old; Janvier Labs, France). Each mouse is placed individually in the exposure chamber, an hemispheric acrylic glass dome (diameter: 50 cm) within a sound-attenuated box. The soundattenuated box is equipped with two house lights and a camera system (Fire-I from Unibrain) in order to observe and record the behavioral seizure response. After 60 seconds of habituation, the stimulus, a mixed frequency tone of 15-20 kHz at 110 dB (SASLab Lite, Avisoft Bioacoustics), is played from a speaker that is placed on the top center of the dome. […] Seizures are classified as following: stage 0, normal behavior; stage 1, wild running; stage 2, generalized clonus; stage 3, tonic extension of the hind limbs. • 2. Compounds testing: Acute compound effects on audiogenic generalized convulsive seizures are evaluated in independent groups of 8-10 mice randomly assigned. Following oral administration of compound or vehicle, the maximum seizure stage during sound exposure is assessed. Compounds are given 1 hour before exposure to the stimulus. Each mouse is exposed to the auditory stimulus only once and euthanized afterwards by CO2 inhalation.

[2] = tested on: primary neuronal cultures from embryonic rat brains; test: Rat oscillation assay (FLIPR, neuronal calcium oscillations); format: cell-based
Procedure, shortened: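 E18 Wistar rat cortical neurons cultured 8–10 days, loaded with 1 µM Fluo-8 AM, then kept in Mg2+-free HEPES-buffered HBSS (2 mM CaCl2, pH 7.4) to drive synchronized calcium oscillations. Fluorescence read at 1 Hz over 500 sec with or without XE-991, compound added at 250 sec; second acquisition 20 min after addition.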

| SMILES | Seizure stage [% vs. vehicle] [1] | IC50 ([2]; 20 min after compound addition, AUC of fluorescence, read-out: FLIPR: IC50 [nM] 20 min) | IC50 ([2]; acute phase, ratio of AUC fluorescence before and after compound addition, rat cortical neurons, Mg-free buffer, read-out: FLIPR: IC50 [nM] acute) | IC50 ([2]; Rattus norvegicus, 20 min, 20 min after compound addition, AUC of fluorescence, read-out: FLIPR: IC50 [nM] 20 min) | IC50 ([2]; Rattus norvegicus, Cortical neurone, acute phase, ratio of AUC fluorescence before and after compound addition, rat cortical neurons, Mg-free buffer, read-out: FLIPR: IC50 [nM] acute) |
| --- | --- | --- | --- | --- | --- |
| O=C(NCc1cccc(C(F)(F)F)c1)NC1CC(C(F)F)C1 (single isomer, unassigned) [Example 53, 1-(3-(Difluoromethyl)Cyclobutyl)-3-(3-(Trifluoromethyl)Benzyl)Urea] | -78 % vs. vehicle | 295 nM | 168 nM | – | – |
| O=C(NCc1cccc(C(F)(F)F)c1)NC12CC(C(F)F)(C1)C2 [Example 47, 1-(3-Difluoromethyl-Bicyclo[1.1.1]Pent-1-yl)-3-(3-Trifluoromethyl-Benzyl)-Urea] | -92 % vs. vehicle | – | – | 160 nM | 118 nM |
